The text below walks through data of patent US12070454B1, “Anesthetic nerve block and method” (PFOF LLC, priority 2022, dated 2024).

Where “and” joins values, the source holds several entries; their conditions need not be identical. Identical values can stand only once.

Data set [1] is classed as physicochemical. The settings on record: for drug mass remaining in solution: 0.375 %; for drug mass precipitated: equal volumes of 8.4% NaHCO3 and 0.75% anesthetic solution, in vitro. The text has this: Because of their elevated pKa's, ALALA drugs will form a crystalline precipitate 82 in an alkaline environment, both intra-axonally and extra-axonally (at the nodes of Ranvier 20 in A-delta fibers and generally around the axon in C-fibers). […] It is anticipated levo-bupivacaine will react similarly to levo-ropivacaine at 96.5% conversion to precipitate and crystallization when this drug becomes available.
NaHCO3 in Solution 1, when mixed with bupivacaine, levo-bupivacaine, or ropivacaine of Solution 2, will cause these drugs to immediately precipitate into crystals in this alkaline solution.
As discovered in our laboratory, 8.4% NaHCO3, when combined in vitro with bupivacaine or ropivacaine, results in precipitates of 93.5% and 96.5% respectively of the parent ALALA drug. […] Controlling the pH of the final combination of all these drugs and bases more efficiently controls the percentage of ALALA converted to precipitate and crystals and thereby the duration of the resulting nerve block.

The test system of data set [2] is peripheral nerve. Type of data set: in vivo, human. The source says: The mass of ALALA drug precipitated around the peripheral nerve or infiltrated tissue causes the intraneural metabolic mechanism transforming unionized to ionized ALALA drug to get overwhelmed. Thus, the normal transformation to ionized ALALA drug gets delayed to the point it takes 5 days or longer for all the ALALA drug to be metabolized and the block to wear off.

Another data set concerns axolemma or node. How it is done:
It is this small amount of bupivacaine within the axolemma/node that results, primarily, in continuing neural blockade for periods of 120 hours or more.

A further data set relates to target nerve. Kind of data set: ALALA-carbonate nerve block by injection of Solution 1 and Solution 2. Type of data set: in vivo, human. Conditions: ALALA-carbonate precipitate in and around the nerve. The text has this:
As shown in FIGS. 17-23, the establishment of a 5-day peripheral nerve block involves the injection of two separate and sequential solutions to form the ALALA-compound precipitate and crystals in vivo around the nerves for specific nerve blocks. These solutions form the ALALA-compound precipitates and crystals. As the two solutions must be kept separate until injection over the specific nerve is accomplished, the solutions may then react to form the ALALA-compound precipitate and crystals in vivo. This separation of solutions by two different means: • 1. The sequential injection of two separate solutions through a single needle (FIGS. 17-19 and 22). • 2. The simultaneous injection of both solutions through a bifurcated needle where mixing occurs only at the needle tip(s) opposite the target nerve (FIGS. 20 and 21). These alkaline solutions are: • 1. […] Epinephrine 86 is present at a concentration of ˜3 mcg/ml, primarily as a standard vascular marker producing mild tachycardia if leakage into the vascular system occurs. When Solution 1 is given, a pulse-oximeter or EKG rhythm strip must be run to confirm no tachycardia for 2 minutes to ensure Solution 1 has no leakage into the vascular system with a resulting tachycardia greater than 15% above baseline pulse. […] Solution 2 is injected only if no increase impulse rate greater than 15% above baseline is determined within 2 minutes. • 3. […]

In data set [3] the test system is peripheral nerve. The settings on record: cited from earlier work; for extension of standard peripheral nerve block: dexmedetomidine and clonidine, along with corticosteroids; for duration of peripheral nerve block, local anesthetic alone: no adjuvant or steroid; for life of peripheral nerve blocks and tissue infiltrates with adjuvants: with epinephrine, corticosteroids, α2-agonists.

The conditions of data set [4]: cited from earlier work; for pH at which precipitates began to form: combined with NaOH.
A short description of data set [5]: Test-tube combination of levobupivacaine with NaHCO3 versus molar prediction. Type of data set: physicochemical. The source says: In a test-tube with one mole of ropivacaine or levobupivacaine reacting with one mole of NaHCO3, a much higher percentage of ropivacaine or levobupivacaine is converted to the ALALA-bicarbonate precipitate than with racemic bupivacaine. Testing with levobupivacaine with NaHCO3 it was established that, levobupivacaine combines with NaHCO3 much more readily than molar predictions indicated. Where molar quantities predicted a 57.7% combination, an 83.9% combination occurred. Where another molar quantity predicted an 86.5% combination, a 94.0% combining of levobupivacaine and NaHCO3 occurred. Thus levo-enantiomers of the ALALA drugs are the preferred forms to be used to create these ALALA-bicarbonate precipitates.

Data set [6] in a line: Precipitation of local anesthetics with increasing pH (NaOH) or corticosteroids. Format: physicochemical. Conditions: alkaline solution.
For data set [7] the following is noted: humans; cited from earlier work.
The conditions of data set [8]: cited from earlier work.

Consider `CCCCN1CCCCC1C(=O)Nc1c(C)cccc1C` (racemic) [bupivacaine, (RS)-1-butyl-N-(2,6-dimethylphenyl)piperidine-2-carboxamide], for which, in data set [1], the “drug mass remaining in solution” value is reported as 7.47%; the drug mass precipitated was 93.53% and 93.5% and 92.53%. Further, in the data set with peripheral nerve [2] (225 mg bupivacaine dose, single volunteer), the “duration of block achieved” value turned out to be 5 days. The “depot as percentage of the dose injected” value in the data set on peripheral nerve [2] (human, in vivo) is given as 7.163%. For the same compound, in the data set on axolemma or node, the “fraction penetrating the axolemma or node before precipitation” value is “approximately 11.9%”. For the same compound, in the data set with target nerve, the “duration of neural blockade / analgesia” value was at least 120 h. Besides, in the data set with peripheral nerve [3], the “extension of standard peripheral nerve block” value is about 50%; the “duration of peripheral nerve block, local anesthetic alone” value (“duration of peripheral nerve block” below) is ~12 h and 16 h; the “life of peripheral nerve blocks and tissue infiltrates with adjuvants” value (from here on “life”) was about 24 h. Also, the “pH at which precipitates began to form” value in data set [4] is on record as 7.7 pH.

Consider `CC1(C)O[C@@H]2C[C@H]3[C@@H]4CCC5=CC(=O)C=C[C@]5(C)[C@@]4(F)[C@@H](O)C[C@]3(C)[C@]2(C(=O)CO)O1` [Triamcinolone], for which, in data set [4] (Hwang et al.), the “precipitate effect when combined with the ALALA drugs” value is on record as “no precipitate-effects”.

On to `CCCCN1CCCC[C@H]1C(=O)Nc1c(C)cccc1C` [levobupivacaine, (S)-1-butyl-N-(2,6-dimethylphenyl)-2-piperidinecarboxamide], for which the “combining of levobupivacaine and NaHCO3 that occurred” value in [5] (where another molar quantity predicted an 86.5% combination) is given as 94.0%. Also, the “combination of levobupivacaine and NaHCO3 that occurred” value in data set [5] (where molar quantities predicted a 57.7% combination) was 83.9%. For the same compound, in the data set on peripheral nerve [3], the “duration of peripheral nerve block” value was about 12 h; the “life” value was about 24 h.

In the case of `CCN(CC)CC(=O)Nc1c(C)cccc1C` [lidocaine], the “pH at which lidocaine precipitates” value in data set [6] is given as about 11.5 pH.

As to `CCCN1CCCC[C@H]1C(=O)Nc1c(C)cccc1C` [ropivacaine, (S)-1-propyl-N-(2,6-dimethylphenyl)piperidine-2-carboxamide], in data set [1], the “drug mass remaining in solution” value was 3.50% and the drug mass precipitated was found to be 96.5%. For the same compound, in the data set on peripheral nerve [3], the “extension of standard peripheral nerve block” value is about 50%; the “duration of peripheral nerve block” value is ~12 h and 16 h; the “life” value was about 24 h. Moreover, in data set [4], the “pH at which precipitates began to form” value is recorded as 6.9 pH.

As to `CCCCNc1ccc(C(=O)OCCN(C)C)cc1` [tetracaine], the “dose at which anaphylactic reactions are known” value in data set [7] is at most 10 mg. In addition, in data set [8], the “pKa relative to bupivacaine” value is “higher than bupivacaine”.
